# Activity calls are given as the source filed them. The rule behind the calls is not given here.
# Molecular target: T1, Serine/threonine-protein kinase ULK1 (Homo sapiens, UniProt O75385)
# T1 sequence (O75385 whole entry): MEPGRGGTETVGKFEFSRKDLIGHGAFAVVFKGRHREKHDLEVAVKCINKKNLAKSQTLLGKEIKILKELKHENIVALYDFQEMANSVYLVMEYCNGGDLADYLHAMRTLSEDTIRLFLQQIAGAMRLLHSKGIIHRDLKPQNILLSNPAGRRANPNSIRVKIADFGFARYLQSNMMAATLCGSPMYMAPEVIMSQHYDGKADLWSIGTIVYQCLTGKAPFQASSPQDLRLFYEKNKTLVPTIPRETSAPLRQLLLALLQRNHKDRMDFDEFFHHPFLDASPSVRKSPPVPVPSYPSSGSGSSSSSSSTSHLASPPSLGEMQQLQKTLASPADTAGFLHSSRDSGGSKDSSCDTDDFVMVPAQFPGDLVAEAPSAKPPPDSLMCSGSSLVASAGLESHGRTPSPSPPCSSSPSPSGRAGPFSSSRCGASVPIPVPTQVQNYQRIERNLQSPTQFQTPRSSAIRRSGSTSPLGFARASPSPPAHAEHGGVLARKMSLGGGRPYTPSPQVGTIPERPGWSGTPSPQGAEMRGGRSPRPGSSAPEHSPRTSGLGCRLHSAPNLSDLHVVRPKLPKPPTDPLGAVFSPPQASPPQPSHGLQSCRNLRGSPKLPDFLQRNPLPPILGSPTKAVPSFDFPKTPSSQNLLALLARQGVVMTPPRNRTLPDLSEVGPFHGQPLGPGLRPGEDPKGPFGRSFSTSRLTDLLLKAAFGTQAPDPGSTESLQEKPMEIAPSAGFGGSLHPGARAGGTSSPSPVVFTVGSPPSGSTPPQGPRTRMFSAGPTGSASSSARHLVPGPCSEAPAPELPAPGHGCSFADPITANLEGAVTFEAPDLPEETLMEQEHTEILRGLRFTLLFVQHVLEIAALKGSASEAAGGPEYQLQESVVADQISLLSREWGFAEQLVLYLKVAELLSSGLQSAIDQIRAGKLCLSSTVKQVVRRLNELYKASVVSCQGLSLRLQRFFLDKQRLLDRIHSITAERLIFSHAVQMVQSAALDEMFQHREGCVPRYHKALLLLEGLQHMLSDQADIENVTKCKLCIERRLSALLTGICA
# Assay: Inhibition of recombinant human ULK1 (1-649) expressed in Sf9 cells using myelin basic protein as substrate by ADP-glo assay
# Conditions: not given
row,Compound,IC50
1,FC(F)(F)c1cnc(Nc2ccc3c(c2)OCCO3)nc1NC1CC1,14 nM
2,FC(F)(F)c1cnc(Nc2ccc3ncoc3c2)nc1NC1CC1,19 nM
3,FC(F)(F)c1cnc(Nc2ccc3[nH]ccc3c2)nc1NC1CC1,23 nM
4,Nc1ccc(Nc2ncc(C(F)(F)F)c(NC3CC3)n2)cc1,20 nM
5,O=C1CCCc2cc(Nc3ncc(C(F)(F)F)c(NC4CC4)n3)ccc21,3 nM
6,FC(F)(F)c1cnc(Nc2ccc3ncccc3c2)nc1NC1CC1,5 nM
7,FC(F)(F)c1cnc(Nc2cnc3[nH]ccc3c2)nc1NC1CC1,29 nM
8,FC(F)(F)c1cnc(Nc2ccc3c(c2)OCCCO3)nc1NC1CC1,7 nM
9,FC(F)(F)c1cnc(Nc2ccc3nn[nH]c3c2)nc1NC1CC1,6 nM
10,O=C(C1CC1)N(C(=O)C1CC1)c1ccc(Nc2ncc(C(F)(F)F)c(NC3CC3)n2)cc1,30 nM
11,CCN1CCOc2cc(Nc3ncc(C(F)(F)F)c(NC4CC4)n3)cnc21,31 nM
12,FC(F)(F)c1cnc(Nc2cnc3[nH]ccc3c2)nc1NC1CCC1,17 nM
13,Nc1nc(Nc2ccc3c(c2)OCO3)ncc1C(F)(F)F,230 nM
14,FC(F)(F)c1cnc(Nc2ccc3c(c2)OCO3)nc1NC1CC1,21 nM
15,CNc1nc(Nc2cnc3[nH]ccc3c2)ncc1C(F)(F)F,34 nM
16,FC(F)(F)c1cnc(Nc2ccnnc2)nc1NC1CC1,40 nM
17,FC1(F)Oc2ccc(Nc3ncc(C(F)(F)F)c(NC4CC4)n3)cc2O1,42 nM
18,O=C(Nc1ccc(Nc2ncc(C(F)(F)F)c(NC3CC3)n2)cc1)C1CC1,13 nM
19,FC(F)(F)c1cnc(Nc2cnc3ccccc3c2)nc1NC1CC1,16 nM

# Molecular target: T1, Serine/threonine-protein kinase ULK1
# Assay: Inhibition of ULK1 (unknown origin) expressed in HEK293T cells incubated for 2 hrs by NanoBRET assay
# Assay type: cell-based
# Conditions: not given
row,Compound,IC50
1,FC(F)(F)c1cnc(Nc2ccc3c(c2)OCCO3)nc1NC1CC1,4480 nM
2,FC(F)(F)c1cnc(Nc2ccc3ncoc3c2)nc1NC1CC1,1020 nM
3,FC(F)(F)c1cnc(Nc2ccc3[nH]ccc3c2)nc1NC1CC1,9840 nM
4,Nc1ccc(Nc2ncc(C(F)(F)F)c(NC3CC3)n2)cc1,679 nM
5,O=C1CCCc2cc(Nc3ncc(C(F)(F)F)c(NC4CC4)n3)ccc21,1360 nM
6,FC(F)(F)c1cnc(Nc2ccc3ncccc3c2)nc1NC1CC1,739 nM
7,FC(F)(F)c1cnc(Nc2cnc3[nH]ccc3c2)nc1NC1CC1,1930 nM
8,FC(F)(F)c1cnc(Nc2ccc3c(c2)OCCCO3)nc1NC1CC1,1600 nM
9,FC(F)(F)c1cnc(Nc2ccc3nn[nH]c3c2)nc1NC1CC1,1170 nM
10,O=C(C1CC1)N(C(=O)C1CC1)c1ccc(Nc2ncc(C(F)(F)F)c(NC3CC3)n2)cc1,1710 nM
11,CCN1CCOc2cc(Nc3ncc(C(F)(F)F)c(NC4CC4)n3)cnc21,1210 nM
12,FC(F)(F)c1cnc(Nc2cnc3[nH]ccc3c2)nc1NC1CCC1,> 10000 nM
13,Nc1nc(Nc2ccc3c(c2)OCO3)ncc1C(F)(F)F,> 10000 nM
14,FC(F)(F)c1cnc(Nc2ccc3c(c2)OCO3)nc1NC1CC1,> 10000 nM
15,CNc1nc(Nc2cnc3[nH]ccc3c2)ncc1C(F)(F)F,3630 nM
16,FC(F)(F)c1cnc(Nc2ccnnc2)nc1NC1CC1,1610 nM
17,FC1(F)Oc2ccc(Nc3ncc(C(F)(F)F)c(NC4CC4)n3)cc2O1,> 10000 nM
18,O=C(Nc1ccc(Nc2ncc(C(F)(F)F)c(NC3CC3)n2)cc1)C1CC1,1330 nM
19,FC(F)(F)c1cnc(Nc2cnc3ccccc3c2)nc1NC1CC1,> 10000 nM

# Molecular target: T2, Serine/threonine-protein kinase ULK2 (Homo sapiens, UniProt Q8IYT8)
# T2 sequence (Q8IYT8 whole entry): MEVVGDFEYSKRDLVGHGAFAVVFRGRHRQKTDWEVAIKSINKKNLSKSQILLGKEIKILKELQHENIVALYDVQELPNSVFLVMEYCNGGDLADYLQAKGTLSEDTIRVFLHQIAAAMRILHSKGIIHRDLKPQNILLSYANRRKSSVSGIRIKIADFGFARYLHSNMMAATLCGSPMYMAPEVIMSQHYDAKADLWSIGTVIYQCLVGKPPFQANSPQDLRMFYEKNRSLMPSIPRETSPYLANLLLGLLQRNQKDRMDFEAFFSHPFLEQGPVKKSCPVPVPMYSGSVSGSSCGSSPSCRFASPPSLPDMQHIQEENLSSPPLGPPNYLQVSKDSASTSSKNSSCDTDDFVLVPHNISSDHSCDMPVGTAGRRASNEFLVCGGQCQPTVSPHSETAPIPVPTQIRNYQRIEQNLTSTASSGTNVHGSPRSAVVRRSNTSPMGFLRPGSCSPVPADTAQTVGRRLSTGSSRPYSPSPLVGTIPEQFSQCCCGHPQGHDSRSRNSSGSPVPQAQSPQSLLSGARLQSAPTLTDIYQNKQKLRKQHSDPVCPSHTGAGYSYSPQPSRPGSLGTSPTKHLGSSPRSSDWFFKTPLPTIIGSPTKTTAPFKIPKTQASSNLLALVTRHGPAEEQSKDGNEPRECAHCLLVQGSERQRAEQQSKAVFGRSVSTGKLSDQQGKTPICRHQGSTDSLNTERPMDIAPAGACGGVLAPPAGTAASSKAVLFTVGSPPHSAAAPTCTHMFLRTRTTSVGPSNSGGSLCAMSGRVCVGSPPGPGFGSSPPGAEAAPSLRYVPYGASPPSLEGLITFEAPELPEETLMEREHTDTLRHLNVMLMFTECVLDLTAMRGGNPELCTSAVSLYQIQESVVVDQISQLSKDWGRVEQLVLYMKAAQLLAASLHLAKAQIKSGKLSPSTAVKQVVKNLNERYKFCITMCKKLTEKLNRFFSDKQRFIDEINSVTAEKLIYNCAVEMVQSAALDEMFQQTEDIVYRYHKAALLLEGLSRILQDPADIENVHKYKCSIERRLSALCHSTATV
# Assay: Inhibition of recombinant human ULK2 (1 to 478 residues) expressed in Sf9 cells using myelin basic protein as substrate by ADP-glo assay
# Conditions: not given
row,Compound,IC50
1,FC(F)(F)c1cnc(Nc2ccc3ncoc3c2)nc1NC1CC1,1190 nM
2,Nc1ccc(Nc2ncc(C(F)(F)F)c(NC3CC3)n2)cc1,1330 nM
3,FC(F)(F)c1cnc(Nc2ccc3ncccc3c2)nc1NC1CC1,714 nM
4,FC(F)(F)c1cnc(Nc2ccc3nc[nH]c3c2)nc1NC1CC1,720 nM
5,COc1cncc(Nc2ncc(C(F)(F)F)c(NC3CC3)n2)c1,695 nM
6,CNC(=O)c1ccccc1Oc1nc(Nc2cc(OC)c(OC)c(OC)c2)ncc1Br,2450 nM

# Molecular target: T2, Serine/threonine-protein kinase ULK2
# Assay: Inhibition of ULK2 (unknown origin) expressed in HEK293T cells incubated for 2 hrs by NanoBRET assay
# Assay type: cell-based
# Conditions: not given
row,Compound,IC50
1,FC(F)(F)c1cnc(Nc2ccc3ncoc3c2)nc1NC1CC1,4260 nM
2,Nc1ccc(Nc2ncc(C(F)(F)F)c(NC3CC3)n2)cc1,1690 nM
3,FC(F)(F)c1cnc(Nc2ccc3ncccc3c2)nc1NC1CC1,1650 nM
4,FC(F)(F)c1cnc(Nc2ccc3nc[nH]c3c2)nc1NC1CC1,703 nM
5,COc1cncc(Nc2ncc(C(F)(F)F)c(NC3CC3)n2)c1,1890 nM
6,CNC(=O)c1ccccc1Oc1nc(Nc2cc(OC)c(OC)c(OC)c2)ncc1Br,4580 nM

# Tested on: not listed separately
# Assay: Apparent permeability of the compound across apical side to basolateral side in human Caco2 cells
# Assay type: ADME, cell-based
# Conditions: Caco-2
row,Compound,Papp A→B
1,FC(F)(F)c1cnc(Nc2ccc3ncoc3c2)nc1NC1CC1,> 10 ×10⁻⁶ cm/s
2,Oc1ccccc1Nc1ncc(C(F)(F)F)c(NC2CC2)n1,> 10 ×10⁻⁶ cm/s
3,Nc1ccc(Nc2ncc(C(F)(F)F)c(NC3CC3)n2)cc1,> 10 ×10⁻⁶ cm/s
4,FC(F)(F)c1cnc(Nc2ccc3ncccc3c2)nc1NC1CC1,> 10 ×10⁻⁶ cm/s
5,FC(F)(F)c1cnc(Nc2ccc3nc[nH]c3c2)nc1NC1CC1,> 10 ×10⁻⁶ cm/s
6,FC(F)(F)c1cnc(Nc2ccc3c(c2)OCCCO3)nc1NC1CC1,> 10 ×10⁻⁶ cm/s
7,COc1cncc(Nc2ncc(C(F)(F)F)c(NC3CC3)n2)c1,> 10 ×10⁻⁶ cm/s

# Tested on: not listed separately
# Assay: Apparent permeability of the compound across basolateral side to apical side in human Caco2 cells
# Assay type: ADME, cell-based
# Conditions: Caco-2
row,Compound,Papp B→A
1,FC(F)(F)c1cnc(Nc2ccc3ncoc3c2)nc1NC1CC1,> 10 ×10⁻⁶ cm/s
2,Oc1ccccc1Nc1ncc(C(F)(F)F)c(NC2CC2)n1,> 10 ×10⁻⁶ cm/s
3,Nc1ccc(Nc2ncc(C(F)(F)F)c(NC3CC3)n2)cc1,> 10 ×10⁻⁶ cm/s
4,FC(F)(F)c1cnc(Nc2ccc3ncccc3c2)nc1NC1CC1,> 10 ×10⁻⁶ cm/s
5,FC(F)(F)c1cnc(Nc2ccc3nc[nH]c3c2)nc1NC1CC1,> 10 ×10⁻⁶ cm/s
6,FC(F)(F)c1cnc(Nc2ccc3c(c2)OCCCO3)nc1NC1CC1,> 10 ×10⁻⁶ cm/s
7,COc1cncc(Nc2ncc(C(F)(F)F)c(NC3CC3)n2)c1,> 10 ×10⁻⁶ cm/s

# Tested on: not listed separately
# Assay: Efflux ratio of apparent permeability from basolateral side to apical side over apical side to basolateral side in human Caco2 cells
# Assay type: ADME, cell-based
# Conditions: Caco-2
row,Compound,efflux ratio
1,FC(F)(F)c1cnc(Nc2ccc3ncoc3c2)nc1NC1CC1,< 2
2,Nc1ccc(Nc2ncc(C(F)(F)F)c(NC3CC3)n2)cc1,< 2
3,FC(F)(F)c1cnc(Nc2ccc3ncccc3c2)nc1NC1CC1,< 2
4,FC(F)(F)c1cnc(Nc2ccc3c(c2)OCCCO3)nc1NC1CC1,< 2

# Molecular target: T3, Serine/threonine-protein kinase ULK1 (Homo sapiens) (UniProt O75385)
# T3 sequence (whole entry): T1 sequence (O75385 whole entry)
# Assay: Inhibition of Myc-tagged ULK1 (unknown origin) expressed in HEK293T cells cotransfected with wild-type Flag tagged Beclin-1 assessed as decrease in pBeclin1 Ser15 at 10 uM measured after 1 hr by Western blot analysis
# Assay type: cell-based
# Conditions: not given
row,Compound,inhibition
1,FC(F)(F)c1cnc(Nc2ccc3ncoc3c2)nc1NC1CC1,Active
2,Nc1ccc(Nc2ncc(C(F)(F)F)c(NC3CC3)n2)cc1,Active
3,FC(F)(F)c1cnc(Nc2ccc3ncccc3c2)nc1NC1CC1,Active
4,FC(F)(F)c1cnc(Nc2ccc3nc[nH]c3c2)nc1NC1CC1,Active
5,COc1cncc(Nc2ncc(C(F)(F)F)c(NC3CC3)n2)c1,Active

# Molecular target: T3, Serine/threonine-protein kinase ULK1 (Homo sapiens)
# Assay: Inhibition of Myc-tagged ULK1 (unknown origin) expressed in HEK293T cells cotransfected with wild-type Flag tagged Vps34 assessed as decrease in pVPS34 Ser249 at 10 uM measured after 1 hr by Western blot analysis relative to control
# Assay type: cell-based
# Conditions: not given
row,Compound,inhibition
1,FC(F)(F)c1cnc(Nc2ccc3ncoc3c2)nc1NC1CC1,70%
2,Nc1ccc(Nc2ncc(C(F)(F)F)c(NC3CC3)n2)cc1,70%
3,FC(F)(F)c1cnc(Nc2ccc3ncccc3c2)nc1NC1CC1,70%
4,FC(F)(F)c1cnc(Nc2ccc3nc[nH]c3c2)nc1NC1CC1,70%
5,COc1cncc(Nc2ncc(C(F)(F)F)c(NC3CC3)n2)c1,70%

# Tested on: not listed separately
# Assay: Inhibition of starvation-induced autophagic flux in human MDA-MB-468 cells expressing tandem-labelled mCherryEGFP-LC3 chimeric protein at 10 uM measured after 18 hrs in EBSS media by flow cytometry (Rvb >90%)
# Assay type: functional
# Conditions: not given
row,Compound,inhibition at 10 µM
1,CNC(=O)c1ccccc1Oc1nc(Nc2cc(OC)c(OC)c(OC)c2)ncc1Br,10%

# Tested on: MDA-MB-468
# Assay: Reduction in autophagosome accumulation in human MDA-MB-468 cells at 10 uM by transmission electron microscopic analysis
# Assay type: functional, cell-based
# Conditions: not given
row,Compound,inhibition
1,CNC(=O)c1ccccc1Oc1nc(Nc2cc(OC)c(OC)c(OC)c2)ncc1Br,Active

# Tested on: MDA-MB-468
# Assay: cells
# Conditions: Homo sapiens, MDA-MB-468, 72 h
# Description: Cytotoxicity against human MDA-MB-468 cells measured after 72 hrs by Celltiter-Glo assay
row,Compound,IC50
1,NC(=O)c1cccc2cn(-c3ccc([C@@H]4CCCNC4)cc3)nc12 [NIRAPARIB],7600 nM
